Like-named read-outs stand apart in the source and are kept apart here.
Molecular target: T1, Recombinant human ASK1 kinase (Homo sapiens, UniProt Q99683)
T1 construct: purchased Invitrogen Inc
T1 sequence (Q99683 1-1374): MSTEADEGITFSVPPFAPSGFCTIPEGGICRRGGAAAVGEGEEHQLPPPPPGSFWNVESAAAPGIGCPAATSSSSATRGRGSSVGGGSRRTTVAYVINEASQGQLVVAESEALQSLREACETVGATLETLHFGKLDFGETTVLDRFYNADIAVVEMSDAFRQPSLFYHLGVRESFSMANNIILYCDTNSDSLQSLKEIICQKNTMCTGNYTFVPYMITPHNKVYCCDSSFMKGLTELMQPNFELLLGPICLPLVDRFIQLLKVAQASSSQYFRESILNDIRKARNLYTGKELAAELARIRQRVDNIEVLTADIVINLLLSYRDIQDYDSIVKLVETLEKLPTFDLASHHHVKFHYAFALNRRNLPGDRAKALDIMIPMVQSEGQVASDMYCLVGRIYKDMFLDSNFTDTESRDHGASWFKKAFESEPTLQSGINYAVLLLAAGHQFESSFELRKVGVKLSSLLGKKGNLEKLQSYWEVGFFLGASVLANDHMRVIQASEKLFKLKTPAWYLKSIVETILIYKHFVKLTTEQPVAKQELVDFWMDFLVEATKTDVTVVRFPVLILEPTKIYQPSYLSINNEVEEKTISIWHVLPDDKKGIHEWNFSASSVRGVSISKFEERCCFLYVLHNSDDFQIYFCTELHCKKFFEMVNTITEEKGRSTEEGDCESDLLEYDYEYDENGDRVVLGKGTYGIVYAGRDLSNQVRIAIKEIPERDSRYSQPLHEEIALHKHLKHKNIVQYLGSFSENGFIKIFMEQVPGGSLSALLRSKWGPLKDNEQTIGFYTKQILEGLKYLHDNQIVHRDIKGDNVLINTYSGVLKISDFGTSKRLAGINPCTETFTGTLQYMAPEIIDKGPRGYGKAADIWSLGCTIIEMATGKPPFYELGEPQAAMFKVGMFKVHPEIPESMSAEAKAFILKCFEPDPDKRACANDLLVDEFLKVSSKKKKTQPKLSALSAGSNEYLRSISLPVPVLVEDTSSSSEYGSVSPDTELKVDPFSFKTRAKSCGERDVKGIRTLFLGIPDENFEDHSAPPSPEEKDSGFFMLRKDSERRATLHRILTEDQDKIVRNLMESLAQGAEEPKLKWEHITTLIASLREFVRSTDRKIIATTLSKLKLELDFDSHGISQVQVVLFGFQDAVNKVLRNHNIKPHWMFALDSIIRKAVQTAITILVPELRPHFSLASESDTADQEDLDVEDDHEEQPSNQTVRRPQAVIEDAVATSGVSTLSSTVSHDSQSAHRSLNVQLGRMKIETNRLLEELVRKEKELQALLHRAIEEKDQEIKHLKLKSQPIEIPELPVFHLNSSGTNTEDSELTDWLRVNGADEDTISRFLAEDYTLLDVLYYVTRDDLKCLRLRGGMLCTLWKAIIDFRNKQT
Assay: ASK1 kinase HTRF assay (HTRF KinEASE-STK, phosphorylation of biotinylated peptide substrate)
Type: biochemical
Method in brief: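 HTRF KinEASE-STK read-out of biotinylated peptide phosphorylation. Compound incubated with 3 nM ASK1 and 1 uM STK-substrate-biotin in kinase buffer containing 5 mM MgCl2 and 1 mM DTT.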

[1] = 3 nM ASK1 kinase, 1 uM STK-substrate-biotin, HTRF detection, read-out: EC50

| Compound | EC50 [1] | EC50 |
| --- | --- | --- |
| CCC(C)n1cnnc1-c1cccc(NC(=O)Nc2ccccn2)n1 (stereo not drawn) [Compound I-028] | < 50 nM |  |
| C[C@H](CO)n1cnnc1-c1cccc(NC(=O)Nc2cc(C(=O)N3CCOCC3)ccn2)n1 [Compound I-133] |  | < 50 nM |
| C[C@H](CO)n1cnnc1-c1cccc(NC(=O)Nc2cc(C(=O)N3CCN(C)CC3)ccn2)n1 [Compound I-142] | < 50 nM |  |
| CC(C)n1cnnc1-c1cccc(N2CCN(c3ccc(N4CC5CCC(C4)O5)cn3)C2=O)n1 [Compound V-15] | < 50 nM |  |
| CC(C)n1cnnc1-c1cccc(NC(=O)Nc2cc(N3CCN(CCO)CC3)ccn2)n1 [Compound I-101] | < 50 nM |  |
| CC(C)n1cnnc1-c1cccc(NC(=O)Nc2cc(C(=O)N3CCC4(CCCCC4)CC3)ccn2)n1 [Compound I-128] | < 50 nM |  |
| C[C@H](CO)n1cnnc1-c1cccc(N2CCN(c3ccc(-c4ccccc4)cn3)C2=O)n1 [Compound V-08] | < 50 nM |  |
| CC(C)n1cnnc1-c1cccc(-n2ccn(-c3ccc(-c4ccccc4)cn3)c2=O)n1 [III-06] | < 50 nM |  |
| C[C@H](CO)n1cnnc1-c1cccc(NC(=O)Nc2ccccn2)n1 [Compound I-026] | < 50 nM |  |
| CC(C)n1cnnc1-c1cccc(NC(=O)Nc2cc(C(=O)Nc3ccc(-c4ccccc4)cc3)ccn2)n1 [Compound I-155] | < 50 nM |  |
| CC(C)n1cnnc1-c1cccc(NC(=O)Nc2cc(C3CCCCC3)ccn2)n1 [Compound I-049] | < 50 nM |  |
| CC(C)n1cnnc1-c1cccc(-n2ccn(-c3ccc(N4CCOCC4)cn3)c2=O)n1 [III-03, 1-(6-(4-Isopropyl-4H-1,2,4-triazol-3-yl)pyridin-2-yl)-3-(5-morpholinopyridin-2-yl)-1H-imidazol-2(3H)-one] | < 50 nM |  |
| CC(C)n1cnnc1-c1cccc(NC(=O)Nc2ncccc2OCc2ccccc2)n1 [Compound I-070] | < 50 nM |  |
| CC(C)n1cnnc1-c1cccc(NC(=O)Nc2cc(S(=O)(=O)N3CCOCC3)ccn2)n1 [Compound I-207] | < 50 nM |  |
| CC(C)n1cnnc1-c1cccc(NC(=O)Nc2ncccn2)n1 [Compound I-212] | < 50 nM |  |
| CC(=O)OC[C@@H](C)n1cnnc1-c1cccc(NC(=O)Nc2cc(C(=O)N3CCCCC3)ccn2)n1 [Compound I-012, (2R)-2-[3-[6-([[4-(Piperidine-1-carbonyl)pyridin-2-yl]carbamoyl]amino)pyridin-2-yl]-4H-1,2,4-triazol-4-yl]propyl acetate] | 50 to 500 nM |  |
| C[C@H](CO)n1cnnc1-c1cccc(N2CCN(c3ccc(N4CCNCC4)cn3)C2=O)n1 [Compound V-22] | < 50 nM |  |
| C[C@@H](CO)n1cnnc1-c1cccc(NC(=O)Nc2cc3ccccc3cn2)n1 [Compound I-059] | < 50 nM |  |
| C[C@H](CO)n1cnnc1-c1cccc(NC(=O)Nc2cc(-c3ccccn3)ccn2)n1 [Compound I-085] | < 50 nM |  |
| CC(C)[C@H](N)C(=O)OC[C@@H](C)n1cnnc1-c1cccc(NC(=O)Nc2cc3ccccc3cn2)n1 [Compound I-062] | < 50 nM |  |
| Cc1cc(F)c(NC(=O)Nc2cccc(-c3nncn3C(C)C)n2)cc1-n1cnc(C2CC2)c1 [Compound I-020] | 500 to 5000 nM |  |

The next lines start with results.

| EC50 [1] | Compound | EC50 |
| --- | --- | --- |
| < 50 nM | CC(C)n1cnnc1-c1cccc(NC(=O)Nc2cc(C(=O)Nc3ccccn3)ccn2)n1 [Compound I-161] |  |
| < 50 nM | CC(C)n1cnnc1-c1cccc(NC(=O)Nc2cc(C(=O)N3CCc4ccccc4C3)ccn2)n1 [Compound I-006, 1-(6-(4-Isopropyl-4H-1,2,4-triazol-3-yl)pyridin-2-yl)-3-(4-(1,2,3,4-tetrahydroisoquinoline-2-carbonyl)pyridin-2-yl)urea] |  |
| < 50 nM | CC(C)n1cnnc1-c1cccc(NC(=O)Nc2cc(C#N)ccn2)n1 [Compound I-198] |  |
| < 50 nM | CC(C)n1cnnc1-c1cccc(NC(=O)Nc2ncccc2Cl)n1 [Compound I-180] |  |
| < 50 nM | CC(C)n1cnnc1-c1cccc(NC(=O)Nc2cccc(Br)n2)n1 [Compound I-179] |  |
| < 50 nM | COc1ccnc(NC(=O)Nc2cccc(-c3nncn3[C@H](C)CO)n2)c1 [Compound I-053] |  |
| < 50 nM | CC(C)n1cnnc1-c1cccc(NC(=O)Nc2cc(C(=O)O)ccn2)n1 [Compound I-202, 2-(3-(6-(4-Isopropyl-4H-1,2,4-triazol-3-yl)pyridin-2-yl)ureido)isonicotinic acid] |  |
| < 50 nM | CC(C)n1cnnc1-c1cccc(NC(=O)Nc2cc(C3CC3)ccn2)n1 [Compound I-047] |  |
| < 50 nM | CC(C)n1cnnc1-c1cccc(NC(=O)Nc2cc(N3CCN(C)CC3)ccn2)n1 [Compound I-005, 1-(6-(4-Isopropyl-4H-1,2,4-triazol-3-yl)pyridin-2-yl)-3-(4-(4-methylpiperazin-1-yl)pyridin-2-yl)urea] |  |
| < 50 nM | CC(C)n1cnnc1-c1cccc(NC(=O)Nc2cc(I)ccn2)n1 [Compound I-173] |  |
| < 50 nM | CC(C)n1cnnc1-c1cccc(NC(=O)Nc2cc(S(C)(=O)=O)ccn2)n1 [Compound I-204] |  |
| 50 to 500 nM | CC(C)n1cnnc1-c1cccc(NC(=O)Nc2cc(O)ccn2)n1 [Compound I-073] |  |

Reference: patent US11427556B2, “Urea derivatives as inhibitors of ASK1” (Hepagene Therapeutics (HK) Limited, priority 2017, dated 2022)
